Mutagenic call data for four compounds are collected here from PubChem BioAssay AID1259407 (Chemical Carcinogenesis Research Information System (CCRIS), 2018).

Active and inactive are the calls of the source. How the calls were made is not given here.

The series has as its system CCRIS mutagenicity, Ames/micronucleus/aberration tests. Description: CCRIS mutagenicity studies.
[1] abbreviates: Test System: AMES SALMONELLA TYPHIMURIUM, Strain/Indicator: TA98, Metabolic Activation: NONE, Method: PREINCUBATION
Where [2] appears, read: Test System: AMES SALMONELLA TYPHIMURIUM, Strain/Indicator: TA100, Metabolic Activation: NONE, Method: PREINCUBATION
The mark [3] stands for this setting: Test System: AMES SALMONELLA TYPHIMURIUM, Strain/Indicator: TA1535, Metabolic Activation: NONE, Method: PREINCUBATION
Setting [4] is: Test System: AMES SALMONELLA TYPHIMURIUM, Strain/Indicator: TA1537, Metabolic Activation: NONE, Method: PREINCUBATION

As for `N[C@@H](CC(=O)O)C(=O)O`, the mutagenic call (End Point: In vivo micronucleus, Test System: Bone marrow erythrocytes, Species: Mouse, Strain/Sex: Crl:CD1 (ICR)/Male and female, Route: Oral) is “inactive; negative”; the mutagenic call (Test System: AMES SALMONELLA TYPHIMURIUM, Strain/Indicator: TA97, Metabolic Activation: NONE, Method: PREINCUBATION) was “inactive; negative”; the mutagenic call (Test System: AMES SALMONELLA TYPHIMURIUM, Strain/Indicator: TA97, Metabolic Activation: RAT, LIVER, S-9, AROCLOR 1254, Method: PREINCUBATION) was “inactive; negative”; the mutagenic call under setting [1] was “inactive; negative”; the mutagenic call (Test System: AMES SALMONELLA TYPHIMURIUM, Strain/Indicator: TA98, Metabolic Activation: RAT LIVER S-9, PHENOBARBITAL AND BETA-NAPHTHOFLAVONE, Method: PREINCUBATION) is “inactive; negative”; the mutagenic call under setting [2] is “inactive; negative”. For the same compound, the mutagenic call reads like this: (Test System: AMES SALMONELLA TYPHIMURIUM, Strain/Indicator: TA100, Metabolic Activation: RAT LIVER S-9, PHENOBARBITAL AND BETA-NAPHTHOFLAVONE, Method: PREINCUBATION) “inactive; negative”; (Test System: AMES SALMONELLA TYPHIMURIUM, Strain/Indicator: TA102, Metabolic Activation: NONE, Method: PREINCUBATION) “inactive; negative”; (Test System: AMES SALMONELLA TYPHIMURIUM, Strain/Indicator: TA102, Metabolic Activation: RAT, LIVER, S-9, AROCLOR 1254, Method: PREINCUBATION) “inactive; negative”; under setting [3], “inactive; negative”; (Test System: AMES SALMONELLA TYPHIMURIUM, Strain/Indicator: TA1535, Metabolic Activation: RAT LIVER S-9, PHENOBARBITAL AND BETA-NAPHTHOFLAVONE, Method: PREINCUBATION) “inactive; negative”; under setting [4], “inactive; negative”. The mutagenic call is, setting by setting: (Test System: AMES SALMONELLA TYPHIMURIUM, Strain/Indicator: TA1537, Metabolic Activation: RAT LIVER S-9, PHENOBARBITAL AND BETA-NAPHTHOFLAVONE, Method: PREINCUBATION) “inactive; negative”; (Test System: Ames Salmonella typhimurium, Strain/Indicator: TA98, Species: None, Method: Standard plate) “inactive; negative”; (Test System: Ames Salmonella typhimurium, Strain/Indicator: TA98, Species: Rat, Liver, S-9, Aroclor 1254 (10%), Method: Standard plate) “inactive; negative”; (Test System: Ames Salmonella typhimurium, Strain/Indicator: TA100, Species: None, Method: Standard plate) “inactive; negative”; (Test System: Ames Salmonella typhimurium, Strain/Indicator: TA100, Species: Rat, Liver, S-9, Aroclor 1254 (10%), Method: Standard plate) “inactive; negative”; (Test System: Ames Salmonella typhimurium, Strain/Indicator: TA1535, Species: None, Method: Standard plate) “inactive; negative”. Further, the mutagenic call is, setting by setting: (Test System: Ames Salmonella typhimurium, Strain/Indicator: TA1535, Species: Rat, Liver, S-9, Aroclor 1254 (10%), Method: Standard plate) “inactive; negative”; (Test System: Ames Salmonella typhimurium, Strain/Indicator: TA1537, Species: None, Method: Standard plate) “inactive; negative”; (Test System: Ames Salmonella typhimurium, Strain/Indicator: TA1537, Species: Rat, Liver, S-9, Aroclor 1254 (10%), Method: Standard plate) “inactive; negative”; (Test System: E. coli, Strain/Indicator: WP2 uvrA, Metabolic Activation: None, Method: Standard plate) “inactive; negative”; (Test System: E. coli, Strain/Indicator: WP2 uvrA, Metabolic Activation: Rat, Liver, S-9, Aroclor 1254 (10%), Method: Standard plate) “inactive; negative”; (Test System: E.COLI, Strain/Indicator: WP2UVRA/PKM101, Metabolic Activation: NONE, Method: PREINCUBATION) “inactive; negative”. Further, the mutagenic call (Test System: E.COLI, Strain/Indicator: WP2UVRA/PKM101, Metabolic Activation: RAT LIVER S-9, PHENOBARBITAL AND BETA-NAPHTHOFLAVONE, Method: PREINCUBATION) was “inactive; negative”.

For `CC(C)c1cc(N)c([N+](=O)[O-])cc1N`, the mutagenic call is, setting by setting: (Test System: AMES SALMONELLA TYPHIMURIUM, Strain/Indicator: TA98, Metabolic Activation: NONE, Method: STANDARD PLATE) “inactive; negative”; (Test System: AMES SALMONELLA TYPHIMURIUM, Strain/Indicator: TA98, Metabolic Activation: RAT, LIVER, S-9, AROCLOR 1254, Method: STANDARD PLATE) “active; positive”; (Test System: AMES SALMONELLA TYPHIMURIUM, Strain/Indicator: TA100, Metabolic Activation: NONE, Method: STANDARD PLATE) “inactive; negative”; (Test System: AMES SALMONELLA TYPHIMURIUM, Strain/Indicator: TA100, Metabolic Activation: RAT, LIVER, S-9, AROCLOR 1254, Method: STANDARD PLATE) “inactive; negative”; (Test System: AMES SALMONELLA TYPHIMURIUM, Strain/Indicator: TA1535, Metabolic Activation: NONE, Method: STANDARD PLATE) “inactive; negative”; (Test System: AMES SALMONELLA TYPHIMURIUM, Strain/Indicator: TA1535, Metabolic Activation: RAT, LIVER, S-9, AROCLOR 1254, Method: STANDARD PLATE) “inactive; negative”. Further, the mutagenic call is, setting by setting: (Test System: AMES SALMONELLA TYPHIMURIUM, Strain/Indicator: TA1537, Metabolic Activation: NONE, Method: STANDARD PLATE) “inactive; negative”; (Test System: AMES SALMONELLA TYPHIMURIUM, Strain/Indicator: TA1537, Metabolic Activation: RAT, LIVER, S-9, AROCLOR 1254, Method: STANDARD PLATE) “inactive; negative”; (Test System: AMES SALMONELLA TYPHIMURIUM, Strain/Indicator: TA1538, Metabolic Activation: NONE, Method: STANDARD PLATE) “inactive; negative”; (Test System: AMES SALMONELLA TYPHIMURIUM, Strain/Indicator: TA1538, Metabolic Activation: RAT, LIVER, S-9, AROCLOR 1254, Method: STANDARD PLATE) “active; positive”.

In the case of `COc1c2cc3c(cc2nc2occc12)OCO3`, the mutagenic call by setting is: (Test System: AMES SALMONELLA TYPHIMURIUM, Strain/Indicator: TA98, Metabolic Activation: RAT, LIVER, S-9, PHENOBARBITAL, Method: STANDARD PLATE) “active; positive”; (Test System: AMES SALMONELLA TYPHIMURIUM, Strain/Indicator: TA100, Metabolic Activation: RAT, LIVER, S-9, PHENOBARBITAL, Method: STANDARD PLATE) “active; positive”.

Regarding `Cc1cccc(OP(=O)(Oc2cccc(C)c2)Oc2cccc(C)c2)c1`, the mutagenic call (Test System: AMES SALMONELLA TYPHIMURIUM, Strain/Indicator: TA98, Metabolic Activation: HAMSTER, LIVER, S-9, AROCLOR 1254, Method: PREINCUBATION) is “inactive; negative”; the mutagenic call under setting [1] is “inactive; negative”; the mutagenic call (Test System: AMES SALMONELLA TYPHIMURIUM, Strain/Indicator: TA98, Metabolic Activation: RAT, LIVER, S-9, AROCLOR 1254, Method: PREINCUBATION) was “inactive; negative”; the mutagenic call (Test System: AMES SALMONELLA TYPHIMURIUM, Strain/Indicator: TA100, Metabolic Activation: HAMSTER, LIVER, S-9, AROCLOR 1254, Method: PREINCUBATION) was “inactive; negative”; the mutagenic call under setting [2] was “inactive; negative”; the mutagenic call (Test System: AMES SALMONELLA TYPHIMURIUM, Strain/Indicator: TA100, Metabolic Activation: RAT, LIVER, S-9, AROCLOR 1254, Method: PREINCUBATION) is “inactive; negative”. The mutagenic call was “inactive; negative” (Test System: AMES SALMONELLA TYPHIMURIUM, Strain/Indicator: TA1535, Metabolic Activation: HAMSTER, LIVER, S-9, AROCLOR 1254, Method: PREINCUBATION); “inactive; negative” under setting [3]; “inactive; negative” (Test System: AMES SALMONELLA TYPHIMURIUM, Strain/Indicator: TA1535, Metabolic Activation: RAT, LIVER, S-9, AROCLOR 1254, Method: PREINCUBATION); “inactive; negative” (Test System: AMES SALMONELLA TYPHIMURIUM, Strain/Indicator: TA1537, Metabolic Activation: HAMSTER, LIVER, S-9, AROCLOR 1254, Method: PREINCUBATION); “inactive; negative” under setting [4]; “inactive; negative” (Test System: AMES SALMONELLA TYPHIMURIUM, Strain/Indicator: TA1537, Metabolic Activation: RAT, LIVER, S-9, AROCLOR 1254, Method: PREINCUBATION).
